# Source: paper PMC11667158, “Flexible fluorine-thiol displacement stapled peptides with enhanced membrane penetration for the estrogen receptor/coactivator interaction” (The Journal of Biological Chemistry, 2024)
# Columns and labels:
# [1] = Circular dichroism, percent α helicity; format: physicochemical; details: CD, 222 nm MRE, 50 μM peptide, room temperature
# Description: CD spectra were obtained using a J-815 CD spectrometer (Jasco) using the wavelength range of 190 to 260 nm. Spectra were collected in a 10 mm quartz cuvette and each spectrum represents the accumulation of three solvent-blank subtracted runs. Data were collected using the following system parameters: bandwidth of 1.00 nm, digital integration time of 2 s, pitch of 1.0 nm, and a scan speed of 50 nm/min. Data underwent minimal adaptive smoothing, and all the related spectra were taken at room temperature under inert nitrogen flow. Peptides were solubilized to 50 μM in either Milli-Q water, 45 mM sodium phosphate buffer (pH 7.4), 30 mM SDS (pH 7.4), or 50% (v/v) TFE. Percentage of α helicity was calculated based on the ellipticity value at 222 nm as done previously ([25], [63]), following the equation α helicity (%)=([ϴ]obs222-[ϴ]0)/([ϴ]max222-[ϴ]0) where [ϴ]max222 = (−44,000 + 250T) (1-x/n), [ϴ]0 = […], T = 20 °C, x = 3, n = number of residues ([25], [63]).
# MCF-7 ER + cells = assay: Soft agar colony formation assay (anchorage independent growth); format: cell-based; details: MCF-7, E2 1 nM, peptide 20 μM, 14 to 18 days
# Experimental: Figure 6 Soft agar colony formation assay. (A) soft agar average colony size and (B) average colony formation in MCF-7 ER + cells assessed in the presence of vehicle (EtOH), E2 (1 nM), and the indicated peptide treatments (WT, LL, or LD) at 20 μM. Graphed data represent the mean ± SD (n = 6). An ordinary one-way ANOVA was used to assess statistical significance where ‘∗’ indicates p < 0.05, ‘∗∗’ indicates p < 0.01, ‘∗∗∗’ indicates p < 0.001. ER, estrogen receptor.
# Cells were seeded (1.5 × 10^4 cells/well) in 1X sterile low melt agarose (Life Technologies) containing 5% dextran-coated charcoal and the appropriate treatment. Soft agar assays were allowed to proceed for 14 to 18 days at 37 °C. Afterward, cell colonies were stained with 0.005% crystal violet in PBS. Colony number and colony size were analyzed with ImageJ (Wayne Rasband, National Institutes of Health, http://rsbweb.nih.gov/ij/). Data are presented as the average ± SD of six independent measurements.
# [2] = target: SRC2-LD, FTDR-stapled, FITC-labelled; assay: fluorescence polarisation; saturation fluorescence anisotropy; ERα-LBD serially diluted to 0.4-7500 nM with 17β-estradiol at four equivalents to ERα; FITC-peptide 50 nM; 10 mM Hepes pH 7.4, 50 mM EDTA, 150 mM NaCl, 0.005% Tween-20; 96-well plates
# [3] = target: SRC2-LL, FTDR-stapled, FITC-labelled; assay: as above
"α-helicity (%) ([1]; 30 mM SDS micellar solution, pH 7.4)","α-helicity (%) ([1]; 45 mM sodium phosphate buffer, pH 7.4)","α-helicity (%) ([1]; 50% (v/v) TFE in water, pH 7.4)",α-helicity (%) ([1]; Water),fold increase in Kd against SRC2-RCM [2],fold increase in Kd against SRC2-RCM [3],Substance,downregulation of colony size compared to the vehicle (MCF-7 ER + cells),average colony size (MCF-7 ER + cells; n = 6)
57.9%,17%,84%,12.8%,,,HKILHRLLQDS [SRC2-WT],19%,"10,193 μm^2"
,,,,1.2 fold,1.5 fold,estrogen receptor α ligand-binding domain (domain or fragment),,
